Patent US20170056504A1, “METHOD OF EXTENDING HALF-LIFE OF CRYSTALINE ANTIBODIES” (priority 2015, published 2017)

Tests used:
[1] = Mouse model of high fat diet induced hyperlipidemia (another study); type: in vivo
[2] = Lactulose with antibiotics cocktail: xPCSK9 mAb serum half-life and large intestine pH; type: in vivo, C57BL6 mice; settings: with antibiotics cocktail in drinking water
Procedure: At Day 0, anti-PCSK9-mAb was systemically administrated (30 mg/kg in PBS, i.v.) to the FcRn gene knockout mice or their wild type C57BL/6 mice (8 w old male). Lactulose (30%, water solution) was orally administered using a Popper's feeding needle once in a day throughout the experiment. In some experiment, groups of mice received antibiotics cocktail (Ampicillin, 2 mg/ml; Vancomycin, 1 mg/ml, Metronidazole 2 mg/ml and Neomycin, 2 mg/ml) ad libitum for 7 days. Blood was collected from mice at Day 1 and Day 7 (100 ul/mouse) by retro-orbital bleeding. The serum was separated from the collected blood and saved at −70 C until the measurement of anti-PCSK9-mAb as well as low-density lipoprotein (LDL) cholesterol in the sampled serum. At Day 7, right after the collection of blood, mice were sacrificed, and liver, small intestine (distal portion, 2 cm above cecum) and large intestine (proximal colon, 1 cm below cecum) were collected. […] The amount of LDL/VLDL in the serum was monitored using a HDL and LDL/VLDL Quantitation Kit (Sigma-Aldrich). The amount of anti-PCSK9-mAb in serum, liver, small and large intestines were measured using the ELISA as described above #1. […] In FIG. 11B, content of large intestine sampled from sacrificed mice was suspended in water (0.1 g/1 ml) and the pH was monitored.

[3] = target: PCSK9 (Mus musculus, UniProt Q80W65); test: LDL level in blood serum of mice that received xPCSK9 mAb and/or lactulose; type: in vivo, C57BL6 mice; set-up: endogenous in cells; host or cells: C57BL6 mice, in vivo (circulating PCSK9 of the animal); settings: oral lactulose alone without xPCSK9 mAb, Day 7
Sequence of PCSK9 (Q80W65 156-694): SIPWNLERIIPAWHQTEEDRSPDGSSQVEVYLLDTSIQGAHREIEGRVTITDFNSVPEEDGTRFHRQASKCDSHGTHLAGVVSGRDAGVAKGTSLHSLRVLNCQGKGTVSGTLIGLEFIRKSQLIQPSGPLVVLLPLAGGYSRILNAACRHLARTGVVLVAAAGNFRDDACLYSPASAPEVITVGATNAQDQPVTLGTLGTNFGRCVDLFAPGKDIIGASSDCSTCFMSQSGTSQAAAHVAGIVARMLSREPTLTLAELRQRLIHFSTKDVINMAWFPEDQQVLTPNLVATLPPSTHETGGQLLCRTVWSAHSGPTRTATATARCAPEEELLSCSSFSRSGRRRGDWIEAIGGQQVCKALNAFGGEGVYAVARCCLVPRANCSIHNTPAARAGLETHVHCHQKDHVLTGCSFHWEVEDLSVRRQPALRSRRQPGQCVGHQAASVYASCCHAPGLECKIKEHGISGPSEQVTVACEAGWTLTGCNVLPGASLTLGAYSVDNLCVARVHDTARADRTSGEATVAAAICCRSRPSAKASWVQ
Procedure: At Day 0, anti-PCSK9-mAb was systemically administrated (30 mg/kg in PBS, i.v.) to the FcRn gene knockout mice or their wild type C57BL/6 mice (8 w old male). Lactulose (30%, water solution) was orally administered using a Popper's feeding needle once in a day throughout the experiment. In some experiment, groups of mice received antibiotics cocktail (Ampicillin, 2 mg/ml; Vancomycin, 1 mg/ml, Metronidazole 2 mg/ml and Neomycin, 2 mg/ml) ad libitum for 7 days. Blood was collected from mice at Day 1 and Day 7 (100 ul/mouse) by retro-orbital bleeding. The serum was separated from the collected blood and saved at −70 C until the measurement of anti-PCSK9-mAb as well as low-density lipoprotein (LDL) cholesterol in the sampled serum. […] The amount of LDL/VLDL in the serum was monitored using a HDL and LDL/VLDL Quantitation Kit (Sigma-Aldrich). The amount of anti-PCSK9-mAb in serum, liver, small and large intestines were measured using the ELISA as described above #1. […]
From Day-0 to Day 7, Lactulose (50% water solution, 0.2 ml/mouse) or control water (0.2 ml/mouse) was orally administered once/day. […] At Day 0, prior to any administrations, and Day 7, blood serum was collected and the concentration of LDL was monitored using LDL detection kit (Sigma).

[4] = test system: Substance P and nerve growth factor (NGF); test: Pregabalin-mediated suppression of pain associated factors with lactulose-generated hydrogen; type: in vivo; settings: hydrogen generated by lactulose, mice

- effect of lactulose on extending the serum half-life of xPCSK9 mAb [2]: abolished
SMILES: OC[C@H]1O[C@@H](O[C@@H]2[C@@H](CO)OC(O)(CO)[C@H]2O)[C@H](O)[C@@H](O)[C@H]1O (mixture of isomers) [lactulose]
- oxidized LDL (oxLDL) [1]: can suppress
- LDL level in blood serum versus base line (Day 0) [3]: did not show any changes from the base line level
- effect on pregabalin-mediated suppression of Substance P and NGF [4]: additive effect
